“Also recorded” adds a separate entry of the source.
What was measured:
3T3-L1 cells [1] = test: Adipogenesis assay, lipid accumulation (Nile Red) in 3T3-L1 cells; format: cell-based, mouse; conditions: over 9-day adipocytic differentiation
Description: (§1) Whether bilirubin decreases adiposity by enhancing mitochondrial function was evaluated. It was previously shown that bilirubin reduces lipid accumulation in adipocytes. However, it remained to be determined if this occurs by activation of PPARα to reduce adiposity, selective actions on PPARγ, or is a dual PPAR agonist, which together may mediate its glucose- and lipid-lowering effects. First, to determine if bilirubin enhances genes for mitochondrial function, 3T3-L1 cells, a WAT-type murine pre-adipocyte cell line that differentiates to full adipocytes, were treated with increasing concentrations of biliverdin, which is more soluble and is rapidly produced to bilirubin, over the 9-day adipocytic differentiation protocol.

3T3-L1 cells [2] = test: Real-time PCR of mitochondrial and lipid burning genes in 3T3-L1 cells; format: cell-based, mouse
Description: as §1
(§2) Total RNA was extracted from mouse tissues using the miRNeasy Mini Kit (Qiagen). Total RNA was read on a NanoDrop 2000 spectrophotometer (Thermo Fisher Scientific, Wilmington, DE) and cDNA was synthesized using High Capacity cDNA Reverse Transcription Kit (Applied Biosystems). PCR amplification of the cDNA was performed by quantitative real-time PCR using TrueAmp SYBR Green qPCR SuperMix (Advance Bioscience). The thermocycling protocol consisted of 3 min at 95° C., 48 cycles of 15 sec at 95° C., 30 sec at 60° C., and based on primer size 0 to 30 sec at 72° C. and finished with a melting curve ranging from 60-95° C. to allow distinction of specific products. Normalization was performed in separate reactions with primers to 36B4.

3T3-L1-WAT adipocytes = test: SeaHorse oxygen consumption rate in fully differentiated 3T3-L1-WAT adipocytes; format: cell-based, mouse; conditions: 50 μM biliverdin, 50 μM WY 14,463, 10 μM rosiglitazone
Description: To compare the effects of bilirubin on the activation of PPARα or PPARγ on mitochondrial function, a SeaHorse XFe96 Analyzer was used to measure oxygen consumption rate (OCR) in fully differentiated 3T3-L1-WAT adipocytes treated with 50 μM biliverdin, 50 μM WY 14,463 (PPARα agonist), or 10 μM rosiglitazone (PPARγ-agonist). […]. Rosiglitazone, but not biliverdin or WY 14,643, enhanced the coupling efficiency. None of the ligands affected non-mitochondrial respiration, basal respiration, or proton leak.
(§3) Cellular respiration was quantified using the Seahorse Extracellular Flux Analyzer XF-96 (Agilent Technologies, Cedar Creek, TX). The Seahorse XF Cell Mito Stress Test Kit (Agilent Technologies, Cat #103015-100) was used for analysis of cellular respiration. BAT or 3T3-L1 cells were seeded on a XF96 cell culture microplate (Agilent 101085-004) at 20,000 cells per well. Cells were then differentiated as previously described for 9 days. […] The oxygen consumption rate (OCR) and extracellular acidification rate (ECAR) were used to quantify the cellular energy phenotype of the cells. After treatment, cells were washed twice with Seahorse Bioscience Assay Media (XF Base media with 25 mM Glucose, 2 mM […], and 1 mM Sodium Pyruvate) then incubated with the buffer for 1 hour in a non-CO2 incubator. The Seahorse Cartridge ports were loaded with […] of assay media with […] FCCP, 10 μM Oligomycin, 5 μM Rotenone/Antimycin A in different ports an hour before assay. […] The raw data and graphs were supplied as an Excel File or Graphpad Prizm file.

3T3-PPARα cells = test: SeaHorse mitochondrial respiration in 3T3-PPARα cells; format: cell-based, mouse; conditions: 3T3-L1 cells overexpressing PPARα
Source text: (§4) To investigate the specific role of bilirubin on PPARα or PPARγ as well as mitochondrial function and gene regulation, 3T3-LI cells that overexpressed each receptor (3T3-PPARα or 3T3-PPARγ2) were generated via lentivirus (FIGS. 2A-2B). […] The 3T3-Vector cells had no responses to biliverdin in FIGS. 2A-2B.
as §3

3T3-Vector cells = test: SeaHorse mitochondrial respiration in 3T3-Vector cells; format: cell-based, mouse; conditions: lentiviral empty vector control cells
Source text: as §4, §3

BAT cells [3] = test: SeaHorse analysis in murine BAT cell line (wild-type); format: cell-based
BAT cells [4] = test: Real-time PCR in differentiated BAT cells; format: cell-based, murine; conditions: 50 μM biliverdin, 50 μM WY14,463, 10 μM rosiglitazone, 24 hrs
Description: as §2

Adrb3 promoter = Adrb3 promoter luciferase reporter in Cos7 cells with or without PPARα; format: cell-based, murine
Description: To determine if biliverdin/bilirubin is increasing Adrb3 in a PPARa-dependent manner, the proximal (−2816 to +118) and enhancer (−4770 to −4430) regions of the murine promoter in the pGL4.10 construct were cloned. The constructs were transfected with or without PPARα in receptorless Cos7 cells. The proximal promoter had no response with or without PPARα expressed in Cos7 cells (FIGS. 3D-3E). […] Therefore, various areas within the Adrb3 promoter were analyzed using the information from the luciferase promoter data and with analysis of several suspected PPREs in the promoter region.
An expression vector for Flag-Tagged PPARα was constructed as previously described. The cells were transfected with RXR-SG5 and either WT-Flag PPARα or with a Flag-Tagged PPARα plasmid with one of the following mutations: M330G, A333G, or T283G, in order to determine if binding of bilirubin at previously predicted positions would alter activity. Cells were also transfected with RXR-SG5 to enhance PPAR activity and the PPAR minimal reporter promoter plasmid (3Tk-Luc), whose activity was measured by luciferase, and pRL-CMV Renilla reporter for normalization to transfection efficiency. Transient transfection was achieved using GeneFect (Alkali Scientific, Inc.) during a 24-hour span.

BAT cells [5] = test: Lipid accumulation over differentiation of BAT cells; conditions: increasing doses over the differentiation of the BAT cells
Source text: Upon differentiation, cells were stained with Nile Red to visualize lipid content, and densitometry was used as a direct measure as previously described.

`C=CC1=C(C)/C(=C/C2=NC(=C\c3[nH]c(/C=C4\NC(=O)C(C)=C4C=C)c(C)c3CCC(=O)O)/C(CCC(=O)O)=C2C)NC1=O` [biliverdin] was tested, and the lipid accumulation (3T3-L1 cells [1]; 1 μM) was “did not reduce”, the lipid accumulation (3T3-L1 cells [1]; 10 μM) was “significantly reduced” and the lipid accumulation (3T3-L1 cells [1]; 50 μM) was “significantly reduced”. For the same compound, the lipid accumulation (3T3-L1 cells [1]; 50 μM, listed as Biliverdin) was “significantly reduced; also recorded: substantially decreased”, the “Ucp1 mRNA” value (3T3-L1 cells [2]; 1 μM) was “significantly heightened” and the “Cpt1 mRNA expression” value (3T3-L1 cells [2]; 50 μM) was “significantly increased”. For the same compound, the “Ucp1 mRNA expression” value (3T3-L1 cells [2]; 50 μM) was “significantly increased”, the ATP production (3T3-L1-WAT adipocytes) was “significantly elevated” and the “mitochondrial OCR for maximum respiration” value (3T3-L1-WAT adipocytes) was “significantly increased”. For the same compound, the ATP production (3T3-PPARα cells) was “significantly higher”, the basal respiration (3T3-PPARα cells) was “significantly higher” and the maximum respiration (3T3-PPARα cells) was “significantly higher”. The proton leak (3T3-PPARα cells) was “significantly higher”, the “responses (mitochondrial respiration)” value (3T3-Vector cells) was “no responses” and the mitochondrial function (BAT cells [3]; BAT cells) was “increasing”. The proton leak (BAT cells [3]; BAT cells) was “stimulated”, the ATP production (BAT cells [3]; WT BAT cells, 24 hours) was “increased; also recorded: stimulated” and the “basal respiration (OCR)” value (BAT cells [3]; WT BAT cells, 24 hours) was “increased”. The “maximum respiration (OCR)” value (BAT cells [3]; WT BAT cells, 24 hours) was “increased; also recorded: significantly higher”, the “Adrb3 mRNA” value (BAT cells [4]) was “significant increase; also recorded: only significantly higher” and the “Ucp1 mRNA” value (BAT cells [4]) was “significant increase”. The “luciferase activity, enhancer region with mutated PPREs” value (Adrb3 promoter; mutations in each PPRE separately) was “no induction”, the “luciferase activity, enhancer (−4770 to −4430) region” value (Adrb3 promoter; with PPARα overexpression) was “significantly higher” and the “luciferase activity, proximal (−2816 to +118) promoter” value (Adrb3 promoter; with or without PPARα expressed in Cos7 cells) was “no response”. For the same compound, the lipid accumulation (BAT cells [5]) was “no impact”.

Source: patent US20250281460A1, “PEGYLATED BILIRUBIN FOR THE TREATMENT OF […], OBESITY, FATTY LIVER DISEASE, CARDIOVASCULAR DISEASES AND TYPE II DIABETES” (The University of Toledo, priority 2019, published 2025)
